Reference: patent US20090325959A1 (priority 2008, published 2009)
Read-outs that look alike come from different tables or passages of the source.

Assays:
[1] = biological target: T1, ROCK1 (Homo sapiens, UniProt Q13464); assay: Rho kinase inhibition assay (IMAP fluorescence polarization), ROCK1; format: biochemical;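 also: kinase reaction run 60 min at room temperature, then phosphorylated substrate captured on IMAP beads for 30 min, with fluorescence polarization read in mP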
T1 construct: purchased Upstate/Chemicon 14-601
T1 sequence (Q13464 17-535 limits assumed): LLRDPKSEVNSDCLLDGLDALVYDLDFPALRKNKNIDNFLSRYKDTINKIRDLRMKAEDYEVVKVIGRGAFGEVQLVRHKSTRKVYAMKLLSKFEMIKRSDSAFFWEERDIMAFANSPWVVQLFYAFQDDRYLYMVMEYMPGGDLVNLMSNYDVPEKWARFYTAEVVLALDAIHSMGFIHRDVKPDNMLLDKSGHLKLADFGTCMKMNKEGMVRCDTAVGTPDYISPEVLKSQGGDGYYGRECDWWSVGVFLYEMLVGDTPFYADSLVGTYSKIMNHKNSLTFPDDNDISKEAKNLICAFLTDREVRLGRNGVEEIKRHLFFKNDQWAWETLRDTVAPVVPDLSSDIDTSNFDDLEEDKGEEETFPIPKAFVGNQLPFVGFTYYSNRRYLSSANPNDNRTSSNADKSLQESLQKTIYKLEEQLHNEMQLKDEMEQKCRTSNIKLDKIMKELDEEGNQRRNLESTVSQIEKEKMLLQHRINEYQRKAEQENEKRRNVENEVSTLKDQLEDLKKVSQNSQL
Description: (§1) Following the pre-incubation, 10 μM ATP was added to initiate the reaction. After 60 minutes at room temperature, Molecular Devices IMAP™ binding solution was added to bind phosphorylated substrate. After 30 minutes of incubation in the presence of the IMAP™ beads, the fluorescence polarization was read and the ratio was reported as mP. IC50 values for compounds and EC50 values for ATP were calculated using the Prism software from Graphpad.

[2] = biological target: T2, ROCK2 (Homo sapiens, UniProt O75116); assay: Rho kinase inhibition assay (IMAP fluorescence polarization), ROCK2; format: biochemical;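 also: kinase reaction started with 10 µM ATP and run 60 min at room temperature, then phosphorylated substrate captured on IMAP beads for 30 min and fluorescence polarization read in mP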
T2 construct: purchased Upstate/Chemicon 14-451
T2 sequence (O75116 11-552 limits assumed): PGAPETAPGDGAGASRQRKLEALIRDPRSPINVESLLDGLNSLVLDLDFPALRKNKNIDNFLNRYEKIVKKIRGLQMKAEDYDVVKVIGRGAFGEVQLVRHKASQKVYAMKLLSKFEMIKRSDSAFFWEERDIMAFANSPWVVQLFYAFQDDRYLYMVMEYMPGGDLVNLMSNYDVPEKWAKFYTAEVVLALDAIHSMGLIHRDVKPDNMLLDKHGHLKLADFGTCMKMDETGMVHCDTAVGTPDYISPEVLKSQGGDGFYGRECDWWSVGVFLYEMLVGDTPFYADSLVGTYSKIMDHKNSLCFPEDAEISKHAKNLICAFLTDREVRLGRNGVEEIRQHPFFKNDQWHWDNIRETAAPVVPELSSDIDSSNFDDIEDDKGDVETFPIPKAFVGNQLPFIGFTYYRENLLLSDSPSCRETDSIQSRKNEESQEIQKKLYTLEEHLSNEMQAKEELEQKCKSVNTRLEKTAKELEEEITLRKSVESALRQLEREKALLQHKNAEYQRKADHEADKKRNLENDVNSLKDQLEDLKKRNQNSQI
Description: as §1

[3] = system: human neutrophils; assay: Human neutrophil chemotaxis induced by fMLP (modified Boyden chamber); format: cell-based
Text: This assay is an in vitro assay of neutrophil chemotaxis that can be used to evaluate the ability of Rho Kinase inhibitor compounds of Formula I or II to inhibit the migration of human neutrophils, an inflammatory cell that has been implicated in the pathophysiology of allergic conjunctivitis.
Peripheral blood from healthy human volunteers was collected and the neutrophils were isolated by Ficoll-paque density centrifugation followed by dextran sedimentation and hypotonic lysis of the red blood cells. Neutrophil chemotaxis was assessed using a modified Boyden Chamber (Neuroprobe, 96-well) with a 3 μm pore polycarbonate membrane. The ability of the tested compounds to block chemotaxis induced by a 1 μM fMLP challenge during a one hour incubation at 37° C. with 5% CO2 was assessed in a dose response manner.

[4] = biological target: T3, Akt3 human enzyme (Homo sapiens, UniProt Q9Y243); assay: Akt3 inhibition assay (IMAP FP); format: biochemical;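 also: kinase reaction run 60 min at room temperature after 30 µM ATP start, phosphorylated substrate captured on IMAP beads and read as fluorescence polarization (mP)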
T3 construct: purchased Upstate Chemicon 14-502
T3 sequence (Q9Y243 whole entry): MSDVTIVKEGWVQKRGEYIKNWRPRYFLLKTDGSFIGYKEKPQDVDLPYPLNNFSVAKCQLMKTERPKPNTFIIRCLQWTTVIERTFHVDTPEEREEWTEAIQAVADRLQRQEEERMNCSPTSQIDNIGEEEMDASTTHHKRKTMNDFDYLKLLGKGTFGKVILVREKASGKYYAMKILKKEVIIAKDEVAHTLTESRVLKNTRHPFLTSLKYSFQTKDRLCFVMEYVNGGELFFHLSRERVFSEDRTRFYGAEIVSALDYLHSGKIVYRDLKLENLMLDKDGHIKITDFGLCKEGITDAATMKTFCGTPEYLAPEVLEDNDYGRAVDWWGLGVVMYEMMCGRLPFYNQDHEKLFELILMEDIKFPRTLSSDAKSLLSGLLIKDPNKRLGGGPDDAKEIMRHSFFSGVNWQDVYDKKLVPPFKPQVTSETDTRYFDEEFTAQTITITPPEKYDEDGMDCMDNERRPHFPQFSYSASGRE

[5] = biological target: T4, p70S6K human enzyme (Homo sapiens, UniProt P23443, T412E); assay: p70S6K inhibition assay (IMAP FP); format: biochemical;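 also: kinase reaction run at room temperature, phosphorylated substrate captured on IMAP beads and read as fluorescence polarization in mP, IC50 then converted to Ki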
T4 construct: purchased Upstate Chemicon 14-486
T4 sequence (P23443 1-421 T412E limits assumed): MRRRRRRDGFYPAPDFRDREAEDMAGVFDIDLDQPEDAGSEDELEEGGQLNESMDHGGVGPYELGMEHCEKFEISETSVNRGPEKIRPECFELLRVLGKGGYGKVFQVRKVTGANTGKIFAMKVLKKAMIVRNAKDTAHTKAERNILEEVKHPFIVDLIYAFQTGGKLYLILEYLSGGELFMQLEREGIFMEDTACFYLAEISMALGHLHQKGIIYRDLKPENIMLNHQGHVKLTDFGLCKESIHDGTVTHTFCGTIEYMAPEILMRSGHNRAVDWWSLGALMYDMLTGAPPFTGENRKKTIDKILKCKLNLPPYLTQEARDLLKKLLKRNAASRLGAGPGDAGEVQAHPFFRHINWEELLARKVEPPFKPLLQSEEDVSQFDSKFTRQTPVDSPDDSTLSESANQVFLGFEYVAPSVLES

[6] = system: A-10 rat thoracic aorta cells; assay: PDGF-stimulated smooth muscle cell proliferation assay (BrdU incorporation); format: cell-based; conditions: A-10 cells, 10 ng/mL PDGF, BrdU incorporation, percent of total challenge-stimulated proliferation; for Percent of PDGF Induced Proliferation at 1 μM Avg: 1 μM test compound; for Percent of PDGF Induced Proliferation at 10 μM Avg: 10 μM test compound;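 as to all read-outs here: cells kept in serum-free medium, BrdU allowed to incorporate for 24 h, then incorporated label detected fluorometrically with an anti-BrdU antibody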
[7] = Compound plasma concentrations in unsensitized mice at 15 min post administration; format: in vivo; conditions: mouse, 15 μmol/kg; mean compound plasma concentration in mice at 15 minutes post oral administration; read-out: Mouse Oral PK
Description: Additionally, compound concentrations were determined in the plasma and lungs of male, ovalbumin-sensitized, Balb/c mice from a murine model of asthma. Test compounds were formulated in water or 1% polysorbate 80 and dosed at 15 μmol/kg for intraperitoneal (IP) or oral (PO) administration or formulated for intratracheal (IT) administration and dosed at 5 μmol/kg, which directly targets the lungs. Following completion of the in vivo study, mice were euthanized and blood and plasma collected approximately 2.5-3 hours post administration of test compound for bronchodialator (BD) studies and 24 hours post administration for anti-inflamatory (AI) studies. Lungs were homogenized in Matrix A lysing tubes using a FastPrep 24 tissue and cell homogenizer (MP Biomedicals, Solon, Ohio). Both plasma samples and lung extracts were assayed for compound concentrations using an on-line, solid phase extraction LC/MS/MS system.

[8] = Rat oral pharmacokinetics (plasma); format: in vivo; conditions: 20-30 μmol/kg; for Vz_F / AUC(0-t): mean n = 3; for AUC(0-t) / Cmax / Tmax / half-life: male, CD Sprague Dawley; for Cmax: mean n = 3, read-out: Cmax; for Tmax: mean n = 3, read-out: Tmax; for half-life: mean n = 3, read-out: t½ (converted)
Description: Plasma (EDTA K2 anticoagulant) was collected from male, cannulated, CD Sprague Dawley rats to determine the pharmacokinetics of formulations containing compound inhibitors of Rho kinase. Each animal was dosed orally with a 4 ml/kg solution or suspension of each test compound in 10 mM acetate buffered saline, pH 4.5 at a final concentration range of 20-30 μmol/kg. Blood was collected at 0.25, 0.5, 1, 2, 4, 6, 8, and 24 hours. Plasma samples were assayed for the concentration of the test compound using an on-line, solid phase extraction LC/MS/MS analysis system.
Samples were analyzed on a QSTAR Elite, hybrid quadrupole time-of-flight mass spectrometer (Applied Biosystems, Framingham, Mass.) coupled with a Symbiosis Pharma integrated, on-line SPE-HPLC system (Spark Holland Inc., Plainsboro, N.J.). Analyst QS 2.0 software was used for instrument control, data acquisition and processing. […] Mobile Phase A consisted of 0.1% ammonium hydroxide in water and Mobile Phase B consisted of 0.1% formic acid in acetonitrile. Pharmacokinetic analyses were performed using WinNonlin software version 5.2 (Pharsight Corporation, Mountain View, Calif.).
As determined from the plasma concentration versus time curves, the time to peak and peak exposure are represented by the values Tmax and Cmax, respectively. The AUC values (nM*hr) shown were calculated as the areas under the plasma concentration versus time curves from time zero through the time of the last observable value and represent the total exposure of the compound over the course of the study. Half-life values or the amount of time required for the plasma levels of the compound to decline to half the initial value are represented as t½.

[9] = 10 μM ATP, read-out: ROCK2 Ki, Avg
[10] = Neutrophil, 1 h, 1 μM fMLP challenge, one hour, read-out: Chemotaxis Avg. IC50
[11] = 30 μM ATP, Ki=IC50/(1+([ATP Challenge]/EC50 ATP)), read-out: Akt3 Ki, Avg
[12] = 30 μM ATP, Ki=IC50/(1+([ATP Challenge]/EC50 ATP)), read-out: p70S6K Ki, Avg
[13] = average Ki, read-out: p70S6K Ki
[14] = average IC50 for inhibition of fMLP-induced neutrophil chemotaxis, read-out: Chemotaxis IC50

SMILES | Ki ([1]; Avg, 10 μM ATP) | Ki [2, 9] | IC50 [3, 10] | Ki [4, 11] | Ki ([4]; average Ki, read-out: Akt3 Ki) | Ki [5, 12] | Ki [5, 13] | Ki ([1]; average Ki) | Ki ([2]; average Ki, read-out: ROCK2 Ki) | IC50 [3, 14] | Percent of PDGF Induced Proliferation at 1 μM Avg [6] | Percent of PDGF Induced Proliferation at 10 μM Avg [6] | concentration at 15 min [7] | Vz_F [8] | AUC(0-t) [8] | Cmax [8] | Tmax [8] | half-life [8]
CS(=O)(=O)Nc1cccc(CN2CC[C@H](Nc3cccc4cnccc34)C2)c1 [Compound 2.035, (S)-N-(3-((3-(isoquinolin-5-ylamino)pyrrolidin-1-yl)methyl)phenyl)methanesulfonamide] | 0.601 µM | 0.202 µM | 6.6 µM | – | – | – | – | – | – | – | – | – | – | – | – | – | – | –
c1cc2cc(CN3CCC[C@@H](Nc4ccc5[nH]ncc5c4)C3)ccc2s1 [Compound 1.138, (R)-N-(1-(benzo[b]thiophen-5-ylmethyl)piperidin-3-yl)-1H-indazol-5-amine] | 0.0363 µM | 0.0072 µM | 1.85 µM | 0.0913 µM | 0.0913 µM | 0.444 µM | 0.444 µM | 0.0411 µM | 0.0063 µM | 1.9 µM | 46.3% | 27.0% | 1.86 µM | – | – | – | – | –
NC(=O)Cn1ccc2ccc(CN3CCC[C@H](Nc4ccc5[nH]ncc5c4)C3)cc21 [Compound 1.107, (S)-2-(6-((3-(1H-indazol-5-ylamino)piperidin-1-yl)methyl)-1H-indol-1-yl)acetamide] | 0.234 µM | 0.014 µM | – | 16.3 µM | – | 3.36 µM | – | – | – | – | – | – | – | 36.3 L/kg | 1590 nM·h | 0.544 µM | 1.67 h | 1.28 h
C[C@@H](N)c1ccc(C(=O)Nc2ccnc3[nH]ccc23)cc1 [Compound Y-39983, reference compound] | – | – | 1.39 µM | – | – | – | – | – | – | – | – | – | – | – | – | – | – | –
Cc1ccc(CN2CCC[C@H](Nc3cccc4cnccc34)C2)cc1 [Compound 2.045, (S)-N-(1-(4-methylbenzyl)piperidin-3-yl)isoquinolin-5-amine] | 0.0906 µM | 0.088 µM | – | – | – | – | – | – | – | – | – | – | – | 226 L/kg | 456 nM·h | 0.223 µM | 0.67 h | 1.59 h
Cc1ccc(CN2CC[C@@H](Nc3cccc4cnccc34)C2)cc1 [Compound 2.025, (R)-N-(1-(4-methylbenzyl)pyrrolidin-3-yl)isoquinolin-5-amine] | 0.0069 µM | 0.0029 µM | 1.65 µM | 0.966 µM | 0.966 µM | 0.499 µM | 0.499 µM | 0.0069 µM | 0.0029 µM | 1.7 µM | 69.8% | 68.0% | 0.074 µM | – | – | – | – | –
CCS(=O)(=O)Nc1cccc(CN2CC[C@@H](Nc3cccc4cnccc34)C2)c1 [Compound 2.041, (R)-N-(3-((3-(isoquinolin-5-ylamino)pyrrolidin-1-yl)methyl)phenyl)ethanesulfonamide] | 0.0308 µM | 0.0096 µM | – | 3.44 µM | 3.44 µM | 2.1 µM | 2.1 µM | 0.0308 µM | 0.0096 µM | – | 81.8% | 61.5% | 0.987 µM | – | – | – | – | –
C#Cc1ccc(CN2CCC[C@@H](Nc3ccc4[nH]ncc4c3)C2)cc1 [Compound 1.076, (R)-N-(1-(4-ethynylbenzyl)piperidin-3-yl)-1H-indazol-5-amine] | 0.0143 µM | 0.0026 µM | – | 0.241 µM | 0.241 µM | 0.414 µM | 0.414 µM | 0.0143 µM | 0.0026 µM | – | 84.0% | 53.7% | 1.72 µM | – | – | – | – | –
CS(=O)(=O)Nc1cccc(CN2CCC(Nc3ccc4[nH]ncc4c3)C2)c1 (stereo not drawn) [Compound 1.087, N-(3-((3-(1H-indazol-5-ylamino)pyrrolidin-1-yl)methyl)phenyl)methanesulfonamide] | 0.0841 µM | 0.0154 µM | 4.5 µM | – | – | – | – | – | – | – | – | – | – | – | – | – | – | –
Clc1ccc(CN2CCC[C@@H](Nc3ccc4[nH]ncc4c3)C2)cc1 [Compound 1.132, (R)-N-(1-(4-chlorobenzyl)piperidin-3-yl)-1H-indazol-5-amine] | 0.0225 µM | 0.0035 µM | – | 0.0818 µM | 0.0818 µM | 0.515 µM | 0.515 µM | 0.0225 µM | 0.0035 µM | – | 48.9% | 30.3% | 0.982 µM | – | – | – | – | –
c1ccc(CN2CC[C@@H](Nc3cccc4cnccc34)C2)cc1 [Compound 2.046, (R)-N-(1-benzylpyrrolidin-3-yl)isoquinolin-5-amine] | 0.0167 µM | 0.0056 µM | – | 1.98 µM | 1.98 µM | 0.759 µM | 0.759 µM | 0.0167 µM | 0.0056 µM | – | 57.4% | 32.1% | 0.488 µM | – | – | – | – | –
NS(=O)(=O)c1cccc(CN2CCC[C@H](Nc3ccc4[nH]ncc4c3)C2)c1 [Compound 1.215, (S)-3-((3-(1H-indazol-5-ylamino)piperidin-1-yl)methyl)benzenesulfonamide] | 0.103 µM | 0.0035 µM | – | 14.8 µM | 4.75 µM | 1.29 µM | 1.29 µM | 0.103 µM | 0.0035 µM | – | 70.8% | 54.0% | 2.65 µM | – | – | – | – | –
O=S(=O)(c1cccc2cnccc12)N1CCCNCC1 [fasudil, reference compound] | – | – | 23.8 µM | – | – | – | – | – | – | – | – | – | – | – | – | – | – | –
OCCOc1cccc(CN2CCC[C@H](Nc3cccc4cnccc34)C2)c1 [Compound 2.036, (S)-2-(3-((3-(isoquinolin-5-ylamino)piperidin-1-yl)methyl)phenoxy)ethanol] | 0.579 µM | 0.233 µM | 2.77 µM | – | – | – | – | – | – | – | – | – | – | – | – | – | – | –
OCCOc1cccc(CN2CCC[C@@H](Nc3cccc4cnccc34)C2)c1 [Compound 2.034, (R)-2-(3-((3-(isoquinolin-5-ylamino)piperidin-1-yl)methyl)phenoxy)ethanol] | 1 µM | 0.221 µM | 4.73 µM | – | – | – | – | – | – | – | – | – | – | – | – | – | – | –
CCS(=O)(=O)Nc1cc(CN2CC[C@@H](Nc3cccc4cnccc34)C2)ccc1C [Compound 2.054, (R)-N-(5-((3-(isoquinolin-5-ylamino)pyrrolidin-1-yl)methyl)-2-methylphenyl)ethanesulfonamide] | 0.0171 µM | 0.0037 µM | – | 0.415 µM | 0.415 µM | 0.439 µM | 0.439 µM | 0.0171 µM | 0.0037 µM | – | 68.2% | 84.6% | 0.765 µM | – | – | – | – | –
OCCn1ccc2ccc(CN3CCC[C@@H](Nc4ccc5[nH]ncc5c4)C3)cc21 [Compound 1.108, (R)-2-(6-((3-(1H-indazol-5-ylamino)piperidin-1-yl)methyl)-1H-indol-1-yl)ethanol] | 0.0256 µM | 0.0065 µM | – | 0.205 µM | 0.205 µM | 0.511 µM | 0.511 µM | 0.0256 µM | 0.0065 µM | – | 83.1% | 43.7% | 0.395 µM | 116 L/kg | 415 nM·h | 0.209 µM | 0.83 h | 1.36 h
